This passage reports TGI and GI50 results from PubChem BioAssay (NCI).

“And” between values parts separate entries of the source, which are not always exact repeats. Identical values can stand only once.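 Assay format: 96-well plates, 48-hour exposure. Here, GI50 denotes the concentration required for 50% inhibition of growth. TGI: concentration producing complete growth inhibition.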

Among the test systems are A549 NSCLC; HL-60(TB) leukemia; NCI-H226 lung; NCI-H23 lung; NCI/ADR-RES ovarian; RXF 393 renal; SF-268 CNS; SF-295 CNS; SF-539 CNS; UO-31 renal.
What all share (test): NCI tumour cell line growth inhibition, 48 h

Turning to `COc1ccc2c3c(ccc2c1)NC(C(=O)O)CC3` (centres undefined), the TGI was greater than 100 µM in the test with A549 NSCLC; 82.9 µM in the test with HL-60(TB) leukemia; greater than 100 µM in the test with NCI-H226 lung; greater than 100 µM with NCI-H23 lung; greater than 100 µM in the test with NCI/ADR-RES ovarian; greater than 100 µM with RXF 393 renal. Further, the TGI in the test with SF-268 CNS, in the test on SF-295 CNS, in the test on SF-539 CNS and in the test with UO-31 renal was greater than 100 µM throughout.

On to `COc1ccc2c(c1)O/C(=C\c1ccc([N+](=O)[O-])o1)C2=O`, for which the GI50 with A549 NSCLC is 2.43 µM; in the test on HL-60(TB) leukemia, 1.8 µM; in the test with NCI-H226 lung, 3.44 µM; in the test on NCI-H23 lung, 1.99 µM; with NCI/ADR-RES ovarian, 2.74 µM; with RXF 393 renal, 1.47 µM. Further, the GI50 in the test on SF-268 CNS was 2 µM; in the test on SF-295 CNS, 2.47 µM; in the test on SF-539 CNS, 1.6 µM; with UO-31 renal, 1.41 µM. Further, the TGI with A549 NSCLC was 8.04 µM; in the test on HL-60(TB) leukemia, 5.69 µM; in the test with NCI-H226 lung, 23.6 µM; in the test on NCI-H23 lung, 5.81 µM; with NCI/ADR-RES ovarian, greater than 30.1 µM; in the test with RXF 393 renal it was 2.99 µM. Further, the TGI in the test with SF-268 CNS is 16.8 µM; in the test with SF-295 CNS it was 11.6 µM; with SF-539 CNS, 4.14 µM; with UO-31 renal, 4.3 µM.

As for `Nc1nc(=O)c2[nH]cnc2n1O`, the TGI in the test with A549 NSCLC, in the test with HL-60(TB) leukemia, in the test with NCI-H226 lung, in the test on NCI-H23 lung, with NCI/ADR-RES ovarian and in the test on RXF 393 renal was greater than 100 µM each time. Moreover, the TGI with SF-268 CNS, in the test on SF-295 CNS, in the test with SF-539 CNS and in the test with UO-31 renal was greater than 100 µM throughout.

For the molecule `OCCNC(=S)Nc1ccc(-c2nc(N3C[C@H]4CC[C@@H](C3)O4)c3cccn3n2)cc1`, the GI50 in the test on A549 NSCLC is 0.0856 µM; in the test on HL-60(TB) leukemia, 1.22 µM; in the test on NCI-H226 lung it was 0.0305 µM; with NCI-H23 lung it was 0.0798 µM; in the test with NCI/ADR-RES ovarian, 0.172 µM; in the test on RXF 393 renal, less than 0.0135 µM. Further, the GI50 with SF-268 CNS is 0.079 µM; with SF-295 CNS, 0.0328 µM; in the test on SF-539 CNS, 0.108 µM; with UO-31 renal, less than 0.0152 µM. For the same molecule, the TGI with A549 NSCLC is 2.75 µM; in the test on HL-60(TB) leukemia, greater than 32.5 µM; in the test with NCI-H226 lung, 0.714 µM; in the test on NCI-H23 lung, 16.7 µM; in the test on NCI/ADR-RES ovarian it was 2.16 µM; with RXF 393 renal it was 0.131 µM. Moreover, the TGI in the test on SF-268 CNS was 25.8 µM; in the test on SF-295 CNS it was 0.265 µM; in the test on SF-539 CNS, 0.767 µM; in the test with UO-31 renal, 0.194 µM.

As for `CC(C)(C)n1nc(C2CC2)cc1NC(=O)Nc1ccc(Cl)cc1`, the TGI in the test on A549 NSCLC, with HL-60(TB) leukemia, in the test on NCI-H226 lung, with NCI-H23 lung, in the test with NCI/ADR-RES ovarian and in the test on RXF 393 renal was greater than 100 µM in each case. Also, the TGI with SF-268 CNS, in the test on SF-295 CNS, with SF-539 CNS and in the test with UO-31 renal was greater than 100 µM throughout.

In the case of `Cc1ccccc1NC(=O)N/C(N)=N/c1nc(C)c(C)s1`, the GI50 was 0.545 µM in the test with A549 NSCLC; 0.235 µM in the test with HL-60(TB) leukemia; 2.08 µM in the test on NCI-H226 lung; 0.519 µM in the test on NCI-H23 lung; 0.089 µM in the test on NCI/ADR-RES ovarian; 0.187 µM in the test on RXF 393 renal. The GI50 with SF-268 CNS is 15.9 µM; in the test on SF-295 CNS it was 0.164 µM; in the test with SF-539 CNS, 0.254 µM; in the test with UO-31 renal, 1.1 µM. Further, the TGI was greater than 100 µM with A549 NSCLC; greater than 100 µM with HL-60(TB) leukemia; greater than 100 µM with NCI-H226 lung; greater than 100 µM in the test on NCI-H23 lung; 15.8 µM with NCI/ADR-RES ovarian; 0.907 µM in the test with RXF 393 renal. Further, the TGI was greater than 100 µM in the test on SF-268 CNS, greater than 100 µM with SF-295 CNS, 4.38 µM with SF-539 CNS and greater than 100 µM in the test with UO-31 renal.

As to `CCCCCCCC(=O)SCC/C=C/[C@@H]1CC(=O)NCc2cccc(n2)C2=N[C@@](C)(CS2)C(=O)N[C@@H](C(C)C)C(=O)O1`, the GI50 with A549 NSCLC was 0.0362 µM; with HL-60(TB) leukemia it was 0.126 µM; in the test on NCI-H226 lung, 0.21 µM; with NCI-H23 lung it was 0.0858 µM; in the test on NCI/ADR-RES ovarian, 0.319 µM; in the test on RXF 393 renal, 0.0534 µM. Further, the GI50 in the test with SF-268 CNS was 0.0986 µM; in the test on SF-295 CNS, 0.0623 µM; with SF-539 CNS, 0.0563 µM; with UO-31 renal, 0.0647 µM. The TGI in the test on A549 NSCLC is greater than 33.3 µM; in the test with HL-60(TB) leukemia it was greater than 33.3 µM; in the test with NCI-H226 lung, greater than 9.23 µM; in the test on NCI-H23 lung, greater than 33.3 µM; in the test on NCI/ADR-RES ovarian it was greater than 33.3 µM; with RXF 393 renal it was 0.207 µM. For the same molecule, the TGI in the test with SF-268 CNS was greater than 28 µM; in the test with SF-295 CNS it was 0.546 µM; with SF-539 CNS, greater than 33.3 µM; in the test on UO-31 renal, 1.03 µM.

For `CCC1CCC2C3CC=C4CC(OC(C)=O)C(N)CC4(C)C3CCC12C` (centres undefined), the TGI in the test on A549 NSCLC stood at 5.13 µM; with HL-60(TB) leukemia, 4.48 µM; with NCI-H226 lung, 39.7 µM; in the test with NCI-H23 lung, 13.6 µM; with NCI/ADR-RES ovarian, 14.2 µM; in the test with RXF 393 renal, 3.68 µM. Moreover, the TGI with SF-268 CNS is 9.08 µM; with SF-295 CNS, 8.03 µM; in the test on SF-539 CNS, 3.5 µM; in the test on UO-31 renal, 9.68 µM.

As for `O=c1[nH]ccc2nc(N3CCC(O)CC3)nc(Nc3ccc(N4CCOCC4)cc3)c12`, the GI50 in the test on A549 NSCLC was 3.9 µM; in the test with HL-60(TB) leukemia, greater than 100 µM; in the test with NCI-H226 lung, greater than 100 µM; with NCI-H23 lung, 8.71 µM; with NCI/ADR-RES ovarian it was greater than 100 µM; in the test on RXF 393 renal it was 1.74 µM. Moreover, the GI50 with SF-268 CNS was 5.94 µM; with SF-295 CNS, greater than 100 µM; in the test on SF-539 CNS, 2.85 µM; in the test with UO-31 renal, 0.374 µM. Besides, the TGI in the test with A549 NSCLC is greater than 100 µM; in the test with HL-60(TB) leukemia, greater than 100 µM; with NCI-H226 lung, greater than 100 µM; in the test with NCI-H23 lung, greater than 100 µM; with NCI/ADR-RES ovarian, greater than 100 µM; in the test with RXF 393 renal it was 7.5 µM. For the same molecule, the TGI with SF-268 CNS is greater than 100 µM; with SF-295 CNS, greater than 100 µM; in the test on SF-539 CNS, 11.2 µM; with UO-31 renal, greater than 100 µM.

On to `COc1cc(/C=C/C(=O)c2ccc(F)cc2)ccc1OCCCCOc1cc2c(cc1OC)C(=O)N1CCCC1C=N2` (centres undefined), for which the GI50 in the test on A549 NSCLC is 2.46 µM; in the test on HL-60(TB) leukemia, 0.477 µM; with NCI-H226 lung it was 0.683 µM; with NCI-H23 lung, 1.47 µM; in the test on NCI/ADR-RES ovarian it was 0.936 µM; in the test with RXF 393 renal, 1.07 µM. The GI50 with SF-268 CNS was 1.03 µM; in the test on SF-295 CNS, 0.707 µM; in the test with SF-539 CNS, 0.641 µM; with UO-31 renal, 0.891 µM. For the same molecule, the TGI in the test with A549 NSCLC was greater than 21.9 µM; in the test with HL-60(TB) leukemia it was 1.21 µM; with NCI-H226 lung it was 1.7 µM; in the test on NCI-H23 lung it was greater than 23.5 µM; in the test on NCI/ADR-RES ovarian, greater than 26.4 µM; in the test with RXF 393 renal it was 9.21 µM. Moreover, the figures for the TGI in the test with SF-268 CNS and in the test with SF-539 CNS were 12.5 µM and 1.62 µM, respectively.

In the case of `CS(=O)(=O)OCCCCOS(C)(=O)=O`, the GI50 with A549 NSCLC was 538 µM; in the test with HL-60(TB) leukemia, 212 µM; in the test with NCI-H226 lung, greater than 966 µM; with NCI-H23 lung it was 685 µM; with NCI/ADR-RES ovarian it was greater than 1000 µM; in the test on RXF 393 renal, 523 µM. For the same molecule, the GI50 is 424 µM with SF-268 CNS, 423 µM in the test with SF-295 CNS, 437 µM in the test on SF-539 CNS and greater than 886 µM in the test on UO-31 renal. Also, the TGI is 243 µM and > 1000 µM in the test with A549 NSCLC; 224 µM and 858 µM in the test with HL-60(TB) leukemia; 250 µM and > 1000 µM with NCI-H226 lung; 249 µM and > 1000 µM with NCI-H23 lung; 250 µM and > 1000 µM in the test with NCI/ADR-RES ovarian; 223 µM and > 1000 µM with RXF 393 renal. The TGI with SF-268 CNS is 223 µM and > 1000 µM; in the test on SF-295 CNS it was 237 µM and > 1000 µM; with SF-539 CNS, 250 µM and > 1000 µM; in the test with UO-31 renal, 250 µM and > 1000 µM.

On to `S=P(C1CCCCC1)(C1CCCCC1)C(c1cccnc1)N1CCCC1` (centres undefined), for which the TGI is 35.4 µM with A549 NSCLC; 37 µM with HL-60(TB) leukemia; 38 µM with NCI-H226 lung; 34.6 µM with NCI-H23 lung; 38.6 µM with NCI/ADR-RES ovarian; 33.4 µM in the test on RXF 393 renal. For the same molecule, the figures for the TGI in the test on SF-268 CNS, in the test on SF-295 CNS and in the test with SF-539 CNS were 38.4 µM, 49.2 µM and 35.2 µM, respectively.

`O=C1C2=C(C(=O)c3c(O)ccc(O)c31)N(c1cccnc1)Cc1ccccc1O2`: the GI50 is 2.85 µM in the test on A549 NSCLC; 0.154 µM in the test on HL-60(TB) leukemia; 0.703 µM in the test with NCI-H226 lung; 0.861 µM in the test with NCI/ADR-RES ovarian; 0.182 µM in the test with RXF 393 renal; 0.65 µM in the test with SF-268 CNS. Also, the GI50 in the test with SF-295 CNS was 2.43 µM; with SF-539 CNS, 0.378 µM; in the test with UO-31 renal, 0.182 µM. For the same molecule, the TGI with A549 NSCLC was 19.9 µM; in the test on HL-60(TB) leukemia, 0.484 µM; with NCI-H226 lung, 1.82 µM; with NCI/ADR-RES ovarian, greater than 25.9 µM; in the test on RXF 393 renal, 0.367 µM; in the test with SF-268 CNS, 2 µM. Besides, the figures for the TGI in the test on SF-295 CNS, in the test on SF-539 CNS and with UO-31 renal were 8.4 µM, 1.36 µM and 0.398 µM, respectively.

In the case of `NNC(=O)C(O)C(O)C(O)CO` (centres undefined), the TGI with A549 NSCLC, with HL-60(TB) leukemia, in the test on NCI-H226 lung, in the test on NCI-H23 lung, in the test with NCI/ADR-RES ovarian and with RXF 393 renal was greater than 100 µM throughout. The TGI in the test on SF-268 CNS, in the test with SF-295 CNS and with UO-31 renal was greater than 100 µM in each case.
